Test [1] has as its system LNCaP cells stably transfected with the plasmid p22EDT1. Kind of test: Trypan blue exclusion cell viability assay after 48 hours culture with 4-OHT (FIG. 3). In kind it is cell-based, human. Particulars: 4-OHT of varying concentrations. As for the experimental part: FIG. 3. […] Parental LNCAP cells (blue) and LNCaP cells stably transfected with the plasmid p22EDT1 (red) were cultured in the presence of 4-OHT of varying concentrations for 48 hours after which the trypan blue exclusion assay was used to assess cell viability. p22EDT1 contains an SV40 promoter driving an FLP-ERt gene sequence and a CMV promoter driving a DT-A sequence disrupted by an FRT-puro/pA-FRT cassette.

Test [2] concerns PC-3 cells co-infected with the bcl2/FLP-ERt and RSV/FRT2puroDT-A containing adenoviruses. Description: In vitro test of gene therapy system: viable and clonogenic cell number after 4-OHT. In kind it is cell-based, human. Particulars: co-infected PC-3 cells, 4-OHT-treated versus non-treated cultures; 1, 2, 3 μM, 48 hours. As for the experimental part: PC-3 cells are co-infected with the bcl2/FLP-ERt and RSV/FRT2puroDT-A containing adenoviruses. Cell death resulting from administration of the synthetic ligand 4-hydroxytamoxifen (4-OHT) is tested in cultured cells. Adenoviral infection is carried out by the addition of viral solutions of varying ratios of the two viruses and at varying degrees of multiplicity of infection to cell monolayers. After three hours of exposure to virus, the medium is changed and cells are incubated in fresh medium containing 4-OHT. Three concentrations of 4-OHT are tested: 1, 2, and 3 μM. After 48 hours incubation with 4-OHT, the number of viable cells are determined using the Trypan blue exclusion assay and the MTT assay (8). Since DT-A kills irreversibly by both apoptosis, as well as nonapoptotic pathways (39), the number of apoptotic cells is also determined. In addition, the growth potential of cells following treatment with tamoxifen is determined using a clonogenic assay (8).
In infected cells, the binding of 4-OHT to the FLP-ERt fusion protein will activate FLP. This in turn will result in recombinational excision of the FRT-puropA-FRT sequence, expression of the DT-A subunit, and cell death. […] Control infections are done with the RSV/FRT2puroDT-A virus alone and with the RSV/puro virus. […]

Test [3] concerns PC-3 xenografts. Kind of test: In vivo test of gene therapy system: PC-3 xenograft tumor volume after 4-OHT. The arrangement: species or system male BALB/c nu/nu athymic mice. The protocol: To further test the efficacy of the regulated recombination system for targeting DT-A to bcl-2 expressing cells, xenografts are generated in male BALB/c nu/nu athymic mice by the subcutaneous injection of PC-3 cells (38,40,42). To generate tumors, […] are mixed with Matrigel basement membrane matrix and injected subcutaneously into the flank of a mouse (38). When tumors reach a volume of about 50 mm^3, a mixture of bcl2/FLP-ERt and RSV/FRT2puroDT-A containing virus is injected directly into the tumor site. A 1:1 ratio of the two viruses is maintained, while the total number of plaque forming units varies (10^9, 5×10^9, and 10^10). Twenty-four hours after injection of the virus, 4-OHT is administered to the host mice either by a single injection directly into the tumor (100 μl of a 3 μM solution in PBS) or by intraperitoneal injection on five consecutive days (1 mg in 100 μl sunflower seed oil). At one, two, and three weeks following the administration of 4-OHT, mice are euthanized, tumors are excised, and their volume and wet weight determined. Tumor volume is calculated by multiplying caliper measurements of length, width, and depth and then multiplying by 0.5236 (23). […] Tumors are fixed and processed for histopathological examination. Other control groups in this study are xenografts infected only with the RSV/FRT2puroDT-A virus and xenografts injected only with PBS.

For the substance 4-hydroxytamoxifen [4-OHT], the “cell viability (DTA expression and cell death)” value in test [1] is “results in DTA expression and cell death”. Also, the “number of viable and clonogenic cells” value in test [2] is on record as “significantly reduced”. In addition, the tumor size result in test [3] (control xenografts infected only with the RSV/FRT2puroDT-A virus or injected only with PBS) is “no effect on tumor size”. Besides, the tumor volume result in test [3] (xenografts injected with 1:1 mixture of bcl2/FLP-ERt and RSV/FRT2puroDT-A virus, 4-OHT intratumoral or intraperitoneal, versus vehicle-treated control mice) is “significantly less”.

Values taken from US20010036460A1, “Targeted death cancer cells” (priority 2000, published 2001).
